Test results from patent US20100099561A1, “HETEROBICYCLIC ALKYLTHIO-BRIDGED ISOXAZOLINES” (E.I. DU PONT DE NEMOURS AND COMPANY, priority 2008, published 2010).

Assays:
Format in all cases: in vivo
[1] = tested on: wheat (Triticum aestivum); assay: Test A preemergence, wheat; conditions: 0 to 100 scale (0 no effect, 100 complete control)
Procedure, shortened: (§1)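 Greenhouse pre/postemergence test, loam–sand soil. Postemergence plants one- to two-leaf, 2–10 cm. Visual injury rating ~10 d after treatment, 0–100 vs untreated.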

[2] = tested on: morningglory (Ipomoea spp.); assay: Test A postemergence, morningglory; conditions: 0 to 100 scale (0 no effect, 100 complete control)
Procedure, shortened: as §1

corn (Zea mays) [3] = assay: Test A preemergence, corn; conditions: 0 to 100 scale (0 no effect, 100 complete control)
Procedure, shortened: as §1

[4] = tested on: giant foxtail (Setaria faberi); assay: Test A postemergence, giant foxtail; conditions: 0 to 100 scale (0 no effect, 100 complete control)
Procedure, shortened: as §1

[5] = tested on: barnyardgrass (Echinochloa crus-galli); assay: Test A postemergence, barnyardgrass; conditions: 0 to 100 scale (0 no effect, 100 complete control)
Procedure, shortened: as §1

[6] = tested on: barnyardgrass (Echinochloa crus-galli); assay: Test A preemergence, barnyardgrass; conditions: 0 to 100 scale (0 no effect, 100 complete control)
Procedure, shortened: as §1

rice (Oryza sativa) = assay: Test B flooded paddy test, rice; conditions: Flood, scale 0 to 100
Procedure, shortened: (§2)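 Rice, umbrella sedge, ducksalad and barnyardgrass at 2-leaf stage; pots flooded to 3 cm, compounds applied into paddy water, depth held throughout. Greenhouse 13 to 15 days, then visual rating vs untreated controls on 0–100 scale (0 no effect, 100 complete control); dash means no test result.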

[7] = tested on: umbrella sedge (Cyperus difformis); assay: Test B flooded paddy test, umbrella sedge; conditions: Flood, scale 0 to 100
Procedure, shortened: as §2

[8] = tested on: pigweed (Amaranthus retroflexus); assay: Test A preemergence, pigweed; conditions: 0 to 100 scale (0 no effect, 100 complete control)
Procedure, shortened: as §1

[9] = tested on: wheat (Triticum aestivum); assay: Test A postemergence, wheat; conditions: 0 to 100 scale (0 no effect, 100 complete control)
Procedure, shortened: as §1

[10] = tested on: velvetleaf (Abutilon theophrasti); assay: Test A postemergence, velvetleaf; conditions: 0 to 100 scale (0 no effect, 100 complete control)
Procedure, shortened: as §1

corn (Zea mays) [11] = assay: Test A postemergence, corn; conditions: 0 to 100 scale (0 no effect, 100 complete control)
Procedure, shortened: as §1

[12] = tested on: barnyardgrass (Echinochloa crus-galli); assay: Test B flooded paddy test, barnyardgrass; conditions: Flood
Procedure, shortened: as §2

[13] = tested on: large crabgrass (Digitaria sanguinalis); assay: Test A preemergence, large crabgrass; conditions: 0 to 100 scale (0 no effect, 100 complete control)
Procedure, shortened: as §1

[14] = tested on: large crabgrass (Digitaria sanguinalis); assay: Test A postemergence, large crabgrass; conditions: 0 to 100 scale (0 no effect, 100 complete control)
Procedure, shortened: as §1

[15] = tested on: pigweed (Amaranthus retroflexus); assay: Test A postemergence, pigweed; conditions: 0 to 100 scale (0 no effect, 100 complete control)
Procedure, shortened: as §1

[16] = tested on: velvetleaf (Abutilon theophrasti); assay: Test A preemergence, velvetleaf; conditions: 0 to 100 scale (0 no effect, 100 complete control)
Procedure, shortened: as §1

[17] = tested on: giant foxtail (Setaria faberi); assay: Test A preemergence, giant foxtail; conditions: 0 to 100 scale (0 no effect, 100 complete control)
Procedure, shortened: as §1

[18] = tested on: morningglory (Ipomoea spp.); assay: Test A preemergence, morningglory; conditions: 0 to 100 scale (0 no effect, 100 complete control)
Procedure, shortened: as §1

[19] = tested on: ducksalad (Heteranthera limosa); assay: Test B flooded paddy test, ducksalad; conditions: Flood, scale 0 to 100
Procedure, shortened: as §2

[20] = 250 g ai/ha, scale 0 to 100 (0 no effect, 100 complete control)

## CC1(C)CC([S+]([O-])Cc2c(C(F)(F)F)nc3n(c2=O)CCS3)=NO1 (stereo not shown) [Compound 5]
[1]; 125 g ai/ha
  Plant response rating, Wheat: 0
[1]; 500 g ai/ha
  Plant response rating, Wheat: 0
[2]; 125 g ai/ha
  Plant response rating, Morningglory: 0
[2]; 500 g ai/ha
  Plant response rating, Morningglory: 0
Corn (Zea mays) [3]; 125 g ai/ha
  Plant response rating, Corn: 0
Corn (Zea mays) [3]; 500 g ai/ha
  Plant response rating, Corn: 0
[4]; 125 g ai/ha
  Plant response rating, Foxtail, Giant: 40
[4]; 500 g ai/ha
  Plant response rating, Foxtail, Giant: 70
[5]; 125 g ai/ha
  Plant response rating, Barnyardgrass: 30
[5]; 500 g ai/ha
  Plant response rating, Barnyardgrass: 60
[6]; 125 g ai/ha
  Plant response rating, Barnyardgrass: 0
[6]; 500 g ai/ha
  Plant response rating, Barnyardgrass: 70
Rice (Oryza sativa); 62 g ai/ha
  Plant response rating, Rice: 0
Rice (Oryza sativa); 250 g ai/ha
  Plant response rating, Rice: 0
[7]; 62 g ai/ha
  Plant response rating, Sedge, Umbrella: 0
[7]; 250 g ai/ha
  Plant response rating, Sedge, Umbrella: 45
[8]; 125 g ai/ha
  Plant response rating, Pigweed: 40
[8]; 500 g ai/ha
  Plant response rating, Pigweed: 60
[9]; 125 g ai/ha
  Plant response rating, Wheat: 0
[9]; 500 g ai/ha
  Plant response rating, Wheat: 0
[10]; 125 g ai/ha
  Plant response rating, Velvetleaf: 0
[10]; 500 g ai/ha
  Plant response rating, Velvetleaf: 40
Corn (Zea mays) [11]; 125 g ai/ha
  Plant response rating, Corn: 0
Corn (Zea mays) [11]; 500 g ai/ha
  Plant response rating, Corn: 30
[12]; 62 g ai/ha, scale 0 to 100
  Plant response rating, Barnyardgrass: 10
[12]; [20]
  Plant response rating, Barnyardgrass: 30
[13]; 125 g ai/ha
  Plant response rating, Crabgrass, Large: 40
[13]; 500 g ai/ha
  Plant response rating, Crabgrass, Large: 80
[14]; 125 g ai/ha
  Plant response rating, Crabgrass, Large: 10
[14]; 500 g ai/ha
  Plant response rating, Crabgrass, Large: 70
[15]; 125 g ai/ha
  Plant response rating, Pigweed: 0
[15]; 500 g ai/ha
  Plant response rating, Pigweed: 10
[16]; 125 g ai/ha
  Plant response rating, Velvetleaf: 0
[16]; 500 g ai/ha
  Plant response rating, Velvetleaf: 0
[17]; 125 g ai/ha
  Plant response rating, Foxtail, Giant: 30
[17]; 500 g ai/ha
  Plant response rating, Foxtail, Giant: 80
[18]; 125 g ai/ha
  Plant response rating, Morningglory: 0
[18]; 500 g ai/ha
  Plant response rating, Morningglory: 0
[19]; 62 g ai/ha
  Plant response rating, Ducksalad: 0
[19]; 250 g ai/ha
  Plant response rating, Ducksalad: 20

## CC1(C)CC([S+]([O-])Cc2c(C(F)(F)C(F)(F)F)nc3n(c2=O)CCC3)=NO1 (stereo not shown) [Compound 27]
[1]; 125 g ai/ha
  Plant response rating, Wheat: 0
[1]; 500 g ai/ha
  Plant response rating, Wheat: 50
[2]; 125 g ai/ha
  Plant response rating, Morningglory: 0
[2]; 500 g ai/ha
  Plant response rating, Morningglory: 40
Corn (Zea mays) [3]; 125 g ai/ha
  Plant response rating, Corn: 0
Corn (Zea mays) [3]; 500 g ai/ha
  Plant response rating, Corn: 0
[4]; 125 g ai/ha
  Plant response rating, Foxtail, Giant: 40
[4]; 500 g ai/ha
  Plant response rating, Foxtail, Giant: 70
[5]; 125 g ai/ha
  Plant response rating, Barnyardgrass: 40
[5]; 500 g ai/ha
  Plant response rating, Barnyardgrass: 70
[6]; 125 g ai/ha
  Plant response rating, Barnyardgrass: 50
[6]; 500 g ai/ha
  Plant response rating, Barnyardgrass: 90
Rice (Oryza sativa); 31 g ai/ha
  Plant response rating, Rice: 0
Rice (Oryza sativa); 62 g ai/ha
  Plant response rating, Rice: 0
Rice (Oryza sativa); 125 g ai/ha
  Plant response rating, Rice: 0
Rice (Oryza sativa); 250 g ai/ha
  Plant response rating, Rice: 0
[7]; 31 g ai/ha
  Plant response rating, Sedge, Umbrella: 0
[7]; 62 g ai/ha
  Plant response rating, Sedge, Umbrella: 0
[7]; 125 g ai/ha
  Plant response rating, Sedge, Umbrella: 0
[7]; 250 g ai/ha
  Plant response rating, Sedge, Umbrella: 0
[8]; 125 g ai/ha
  Plant response rating, Pigweed: 0
[8]; 500 g ai/ha
  Plant response rating, Pigweed: 0
[9]; 125 g ai/ha
  Plant response rating, Wheat: 0
[9]; 500 g ai/ha
  Plant response rating, Wheat: 50
[10]; 125 g ai/ha
  Plant response rating, Velvetleaf: 0
[10]; 500 g ai/ha
  Plant response rating, Velvetleaf: 40
Corn (Zea mays) [11]; 125 g ai/ha
  Plant response rating, Corn: 0
Corn (Zea mays) [11]; 500 g ai/ha
  Plant response rating, Corn: 0
[12]; 31 g ai/ha, scale 0 to 100
  Plant response rating, Barnyardgrass: 0
[12]; 62 g ai/ha, scale 0 to 100
  Plant response rating, Barnyardgrass: 0
[12]; 125 g ai/ha, scale 0 to 100
  Plant response rating, Barnyardgrass: 0
[12]; [20]
  Plant response rating, Barnyardgrass: 0
[13]; 125 g ai/ha
  Plant response rating, Crabgrass, Large: 70
[13]; 500 g ai/ha
  Plant response rating, Crabgrass, Large: 90
[14]; 125 g ai/ha
  Plant response rating, Crabgrass, Large: 40
[14]; 500 g ai/ha
  Plant response rating, Crabgrass, Large: 80
[15]; 125 g ai/ha
  Plant response rating, Pigweed: 0
[15]; 500 g ai/ha
  Plant response rating, Pigweed: 30
[16]; 125 g ai/ha
  Plant response rating, Velvetleaf: 0
[16]; 500 g ai/ha
  Plant response rating, Velvetleaf: 60
[17]; 125 g ai/ha
  Plant response rating, Foxtail, Giant: 60
[17]; 500 g ai/ha
  Plant response rating, Foxtail, Giant: 90
[18]; 125 g ai/ha
  Plant response rating, Morningglory: 0
[18]; 500 g ai/ha
  Plant response rating, Morningglory: 0
[19]; 31 g ai/ha
  Plant response rating, Ducksalad: 0
[19]; 62 g ai/ha
  Plant response rating, Ducksalad: 0
[19]; 125 g ai/ha
  Plant response rating, Ducksalad: 0
[19]; 250 g ai/ha
  Plant response rating, Ducksalad: 0

## CC1(C)CC(S(=O)(=O)Cc2c(C(F)(F)F)nc3n(c2=O)CCCCC3)=NO1 [Compound 33]
[1]; 125 g ai/ha
  Plant response rating, Wheat: 0
[1]; 500 g ai/ha
  Plant response rating, Wheat: 50
[2]; 125 g ai/ha
  Plant response rating, Morningglory: 40
[2]; 500 g ai/ha
  Plant response rating, Morningglory: 60
Corn (Zea mays) [3]; 125 g ai/ha
  Plant response rating, Corn: 0
Corn (Zea mays) [3]; 500 g ai/ha
  Plant response rating, Corn: 0
[4]; 125 g ai/ha
  Plant response rating, Foxtail, Giant: 70
[4]; 500 g ai/ha
  Plant response rating, Foxtail, Giant: 80
[5]; 125 g ai/ha
  Plant response rating, Barnyardgrass: 50
[5]; 500 g ai/ha
  Plant response rating, Barnyardgrass: 80
[6]; 125 g ai/ha
  Plant response rating, Barnyardgrass: 40
[6]; 500 g ai/ha
  Plant response rating, Barnyardgrass: 90
Rice (Oryza sativa); 31 g ai/ha
  Plant response rating, Rice: 0
Rice (Oryza sativa); 62 g ai/ha
  Plant response rating, Rice: 0
Rice (Oryza sativa); 125 g ai/ha
  Plant response rating, Rice: 0
Rice (Oryza sativa); 250 g ai/ha
  Plant response rating, Rice: 25
[7]; 31 g ai/ha
  Plant response rating, Sedge, Umbrella: 0
[7]; 62 g ai/ha
  Plant response rating, Sedge, Umbrella: 20
[7]; 125 g ai/ha
  Plant response rating, Sedge, Umbrella: 60
[7]; 250 g ai/ha
  Plant response rating, Sedge, Umbrella: 80
[8]; 125 g ai/ha
  Plant response rating, Pigweed: 10
[8]; 500 g ai/ha
  Plant response rating, Pigweed: 100
[9]; 125 g ai/ha
  Plant response rating, Wheat: 0
[9]; 500 g ai/ha
  Plant response rating, Wheat: 40
[10]; 125 g ai/ha
  Plant response rating, Velvetleaf: 0
[10]; 500 g ai/ha
  Plant response rating, Velvetleaf: 20
Corn (Zea mays) [11]; 125 g ai/ha
  Plant response rating, Corn: 0
Corn (Zea mays) [11]; 500 g ai/ha
  Plant response rating, Corn: 0
[12]; 31 g ai/ha, scale 0 to 100
  Plant response rating, Barnyardgrass: 0
[12]; 62 g ai/ha, scale 0 to 100
  Plant response rating, Barnyardgrass: 0
[12]; 125 g ai/ha, scale 0 to 100
  Plant response rating, Barnyardgrass: 0
[12]; [20]
  Plant response rating, Barnyardgrass: 35
[13]; 125 g ai/ha
  Plant response rating, Crabgrass, Large: 90
[13]; 500 g ai/ha
  Plant response rating, Crabgrass, Large: 100
[14]; 125 g ai/ha
  Plant response rating, Crabgrass, Large: 50
[14]; 500 g ai/ha
  Plant response rating, Crabgrass, Large: 80
[15]; 125 g ai/ha
  Plant response rating, Pigweed: 20
[15]; 500 g ai/ha
  Plant response rating, Pigweed: 50
[16]; 125 g ai/ha
  Plant response rating, Velvetleaf: 30
[16]; 500 g ai/ha
  Plant response rating, Velvetleaf: 60
[17]; 125 g ai/ha
  Plant response rating, Foxtail, Giant: 90
[17]; 500 g ai/ha
  Plant response rating, Foxtail, Giant: 100
[18]; 125 g ai/ha
  Plant response rating, Morningglory: 20
[18]; 500 g ai/ha
  Plant response rating, Morningglory: 50
[19]; 31 g ai/ha
  Plant response rating, Ducksalad: 0
[19]; 62 g ai/ha
  Plant response rating, Ducksalad: 0
[19]; 125 g ai/ha
  Plant response rating, Ducksalad: 20
[19]; 250 g ai/ha
  Plant response rating, Ducksalad: 50
